The target of data set [1] is Pim-1 kinase (Homo sapiens (Human), UniProt P11309). The experiment in a line: Pim-1 kinase inhibition assay (Promega Kinase-Glo). The format is biochemical. The following applies: read-out: IC50 on Pim1. An excerpt:
One illustrative manner in which Pim-1 kinase activity can be determined is by quantifying the amount of ATP remaining in solution after an in vitro Pim-1 kinase reaction. The Kinase-Glo Assay Kit (Promega, Inc., Madison, Wis.) allows this. The amount of ATP remaining in the solution after the kinase reaction serves as a substrate for the luciferase to catalyze luciferin to oxyluciferin plus one photon of light. Thus, the luminescent signal read by the Luminoskan Ascent Instrument (Thermo Electron Corp., Milford, Mass.) correlates with the amount of ATP present after the kinase reaction and inversely correlates with the amount of kinase activity. […] These assays are set up in duplicate 50 ul volumes in white, flat bottom 96 well plates. […] This solution is incubated at 30 degrees Celsius at 360 rpm for two hours. Following the incubation, 50 ul of Kinase-Glo reagent is added to each well, including all positive and negative control wells, and incubated at room temperature for 15 minutes. […] The IC50 values can then be calculated for each inhibitor tested.
(In general: Kinase-Glo measures the ATP left after a reaction by luminescence.)

Data set [2] has as its system UM-UC-3 xenograft tumors. Briefly: UM-UC-3 established mouse xenograft. It is filed as in vivo. The text has this:
(§1) Male and female Nu/Nu mice were purchased from Harlan Sprague Dawley (Indianapolis, Ind.). Female Nu/Nu mice were used for all xenograft evaluations with the exception of the PC-3 xenografts where male Nu/Nu mice were used. Cell lines were expanded in vitro in complete media, and if adherent were harvested by trypsin-EDTA, centrifuged and resuspended in PBS 1:1 with Matrigel (BD Bioscienes). Cells were inoculated subcutaneously in the right hind flank of mice. […] Tumor volumes and body weights were determined twice a week, and tumor weights were measured at the completion of the translational xenograft studies.

The test system of data set [3] is PC-3 xenograft tumors. Briefly: PC-3 established mouse xenograft. The format is in vivo.
From the text: as §1

Data set [4] has as its system hematological cell lines. Briefly: In vitro viability assay, panel of hematological cell lines. The format is cell-based. The following applies: most sensitive hematological cell lines. The protocol:
(§2) Adherent or suspension cancer cell lines were seeded at 2000-5000 cells/well in a 96-well plate, or 1000-2000 cells/well in a 384-well plate. Suspension cells were treated with drug the same day as seeding, while adherent cells were incubated overnight at 37° C. in 5% CO2 prior to drug treatment. All cells were treated for 72 hours, then lysed with ATPlite (Perkin Elmer) and measured on an Envision microplate reader. IC50 values were determined using GraphPad Prism software.
(§3) Over 35 cell lines were tested, and the most sensitive cell lines from various indications were selected and verified by multiple EC50 determinations (FIG. 6). […] Anti-proliferative activity using PIM-2 shRNA against FLT3-ITD driven leukemia lines has been observed (Adam (2006) Cancer Res 66:3828-35 data not shown).

In data set [5] the test system is UM-UC-3. The experiment in a line: In vitro viability/proliferation assay, UM-UC-3. It is filed as cell-based. The following applies: Homo sapiens, UMUC3; bladder line UM-UC-3. The protocol:
as §2, §3

Data set [6] has as its system ML-2 cells (wild-type FLT3). Briefly: ML-2 mouse xenograft. The conditions noted are these: ML-2 (wild-type FLT3) xenograft. It is filed as in vivo. The text has this: (§4) Male and female Nu/Nu mice were purchased from Harlan Sprague Dawley (Indianapolis, Ind.). Female Nu/Nu mice were used for all xenograft evaluations with the exception of the PC-3 xenografts where male Nu/Nu mice were used. Cell lines were expanded in vitro in complete media, and if adherent were harvested by trypsin-EDTA, centrifuged and resuspended in PBS 1:1 with Matrigel (BD Bioscienes). Cells were inoculated subcutaneously in the right hind flank of mice. When tumors reached 100-200 mm^3 by caliper measurement, mice were randomized and dosing of SGI-9481 or vehicle control began and continued every day for 5 days (QDx5) with 2 days off for 18-21 days. Tumor volumes and body weights were determined twice a week, and tumor weights were measured at the completion of the translational xenograft studies.

Data set [7] has as its system MV-4-11 (FLT3-ITD). Briefly: MV-4-11 mouse xenograft. It is filed as in vivo. The conditions noted are these: MV-4-11 (FLT3-ITD) established xenografts.
From the text: as §4

Setting [8] is: 125 mg/kg, less than with 200 mg/kg.

From patent US10047093B2, “Substituted imidazo[1,2-B]pyridazines as protein kinase inhibitors” (Tolero Pharmaceuticals, Inc., priority 2011, dated 2018) come the findings set out here.

pEC50, pIC50: −log10 of the molar value. Some results are limits rather than exact numbers.

Pim-1 kinase, sequence (P11309 whole entry): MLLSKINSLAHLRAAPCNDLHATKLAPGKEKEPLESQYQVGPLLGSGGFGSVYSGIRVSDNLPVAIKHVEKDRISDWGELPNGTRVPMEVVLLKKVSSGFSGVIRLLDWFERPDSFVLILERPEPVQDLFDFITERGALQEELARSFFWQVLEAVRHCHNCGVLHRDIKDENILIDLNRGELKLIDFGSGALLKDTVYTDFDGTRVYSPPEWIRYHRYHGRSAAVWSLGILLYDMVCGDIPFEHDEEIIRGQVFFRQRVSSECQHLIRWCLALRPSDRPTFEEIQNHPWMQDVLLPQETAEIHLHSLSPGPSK

For orientation: pIC50 means the IC50 on a negative log10 scale, so that one unit is a factor of ten. For `C[C@]1(O)CC[C@H](Nc2ccc3nnc(-c4cccc(OC(F)(F)F)c4)n3c2)CC1` [Compound 8-100, 1-Methyl-4-((3-(3-(trifluoromethoxy)phenyl)-[1,2,4]triazolo[4,3-a]pyridin-6-yl)amino)-trans-cyclohexanol], in data set [1], the pIC50 is 5.78.
One may read the pEC50 as the negative decadic logarithm of the EC50, by convention in mol/L. Low readings indicate a high EC50, high ones a low EC50. For `CC(C)(O)[C@H]1CC[C@H](Nc2ccc3ncc(-c4cccc(C(F)(F)F)c4)n3n2)CC1` [Compound 8-31], the tumor growth inhibition result in data set [2] (setting [8]) and in data set [3] (setting [8]) was “significant tumor growth inhibition” in each case. The “body weight and gross adverse toxicity” value in data set [2] (oral dosing of 200 mg/kg) and in data set [3] (oral dosing of 200 mg/kg) was “no significant changes in body weight or gross adverse toxicity” throughout. Moreover, the “tumor growth measured by volume (caliper) and by final tumor weight” value in data set [2] (oral dosing of 200 mg/kg) and in data set [3] (oral dosing of 200 mg/kg) was “significantly reduced” throughout. Besides, the pEC50 in data set [4] and in data set [5] was 5.70 to 6.00 throughout. The tumor growth entry in data set [6] is given as “significant tumor growth inhibition”. Besides, the “tumor growth of established xenografts” value in data set [7] is reported as “induced regressions”.
As for “4-(((3-(3-(Trifluoromethyl)phenyl)-[1,2,4]triazolo[4,3-a]pyridin-6-yl)amino)methyl)tetrahydro-2H-thiopyran 1,1-dioxide [Compound 8-111]”, the pIC50 in data set [1] is under 4.52.
